Literature values as cited in patent publication US20250064725A1, “OPHTHALMIC PREPARATION OF TYROSINE KINASE INHIBITOR, AND PREPARATION METHOD THEREFOR AND USE THEREOF” (CHENGDU RUIMU BIOPHARMACEUTICALS CO., LTD., priority 2021, published 2025).

Assays:
[1] = tested on: age-related macular degeneration; details: oral tablets 50, 100, 200 mg/day
[2] = oral administration of tablets

SMILES	Toxicity outcome of the clinical trial [1]	Visual improvement ([1]; after 6 months)	Incidence rate of diarrhea [2] [%]	Incidence rate of fatigue [2] [%]	Incidence rate of hypertension [2] [%]	Incidence rate of loss of appetite [2] [%]	Incidence rate of nausea [2] [%]
Cc1[nH]c(/C=C2\C(=O)Nc3ccc(F)cc32)c(C)c1C(=O)N[C@H]1CCN(C(=O)N(C)C)C1 [Example X-82]	suspended due to its toxicity	non-inferior	–	–	–	–	–
CNC(=O)c1ccccc1Sc1ccc2c(/C=C/c3ccccn3)n[nH]c2c1 [axitinib]	–	–	55	39	40	34	32
CNC(=O)c1cc(Oc2ccc(NC(=O)Nc3ccc(Cl)c(C(F)(F)F)c3)cc2)ccn1 [sorafenib]	–	–	53	32	29	29	22
